Assay results as given in the NIST ThermoML archive (doi:10.1021/je400781b).
Numbers after ± are expanded uncertainties.

Test: xn = mol fraction of the nth substance listed
Details: 101 kPa, Liquid; for speed of sound: Frequency=2.75 MHz, Pulse-echo method; for mass density: Vibrating tube method

CCCC[n+]1ccn(C)c1.O=S(=O)([N-]S(=O)(=O)C(F)(F)F)C(F)(F)F + C1CCOC1
Details | mass density, 293.15 K [kg/m3] | mass density, 298.15 K [kg/m3] | mass density, 303.15 K [kg/m3] | mass density, 308.15 K [kg/m3] | speed of sound, 293.15 K [m/s] | speed of sound, 298.15 K [m/s] | speed of sound, 303.15 K [m/s] | speed of sound, 308.15 K [m/s]
x1 = 0.0507 | 981.03 ± 0.63 | 975.68 ± 0.62 | 970.55 ± 0.62 | 965.26 ± 0.63 | 1276.2 ± 1.2 | 1254.6 ± 1.2 | 1233.2 ± 1.2 | 1212 ± 1.2
x1 = 0.124 | 1080.62 ± 0.49 | 1075.39 ± 0.49 | 1070.15 ± 0.49 | 1064.96 ± 0.49 | 1257.3 ± 1.2 | 1238.5 ± 1.2 | 1219.9 ± 1.2 | 1201.5 ± 1.2
x1 = 0.1963 | 1153.02 ± 0.34 | 1147.88 ± 0.33 | 1142.73 ± 0.33 | 1137.6 ± 0.34 | 1246.9 ± 1.2 | 1230 ± 1.2 | 1213.2 ± 1.2 | 1196.6 ± 1.2
x1 = 0.3526 | 1258.69 ± 0.3 | 1253.67 ± 0.3 | 1248.66 ± 0.3 | 1243.66 ± 0.3 | 1236.8 ± 1.2 | 1222.4 ± 1.2 | 1208 ± 1.2 | 1193.8 ± 1.2
x1 = 0.4962 | 1321.98 ± 0.3 | 1317.04 ± 0.3 | 1312.1 ± 0.3 | 1307.18 ± 0.3 | 1234.1 ± 1.3 | 1220.9 ± 1.3 | 1207.8 ± 1.3 | 1194.9 ± 1.3
x1 = 0.6378 | 1366.6 ± 0.36 | 1361.72 ± 0.36 | 1356.84 ± 0.35 | 1351.97 ± 0.35 | 1233.5 ± 1.3 | 1221 ± 1.3 | 1208.7 ± 1.3 | 1196.5 ± 1.3
x1 = 0.8047 | 1405.56 ± 0.46 | 1400.72 ± 0.46 | 1395.89 ± 0.46 | 1391.07 ± 0.45 | 1235.6 ± 1.4 | 1223.8 ± 1.4 | 1212.2 ± 1.4 | 1200.7 ± 1.4
x1 = 0.9143 | 1425.59 ± 0.54 | 1420.79 ± 0.54 | 1415.99 ± 0.54 | 1411.2 ± 0.53 | 1236.9 ± 1.5 | 1225.4 ± 1.5 | 1214.1 ± 1.5 | 1203 ± 1.5
x1 = 1 | 1439.23 ± 0.61 | 1434.44 ± 0.61 | 1429.65 ± 0.6 | 1424.88 ± 0.6 | 1237.9 ± 1.5 | 1226.7 ± 1.5 | 1215.6 ± 1.5 | 1204.6 ± 1.5

CCCC[n+]1ccn(C)c1.O=S(=O)([N-]S(=O)(=O)C(F)(F)F)C(F)(F)F + CC#N
Details | mass density, 293.15 K [kg/m3] | mass density, 298.15 K [kg/m3] | mass density, 303.15 K [kg/m3] | mass density, 308.15 K [kg/m3] | mass density, 313.15 K [kg/m3] | speed of sound, 293.15 K [m/s] | speed of sound, 298.15 K [m/s] | speed of sound, 303.15 K [m/s] | speed of sound, 308.15 K [m/s] | speed of sound, 313.15 K [m/s]
x1 = 0.0506 | 936.84 ± 0.95 | 931.39 ± 0.94 | 925.93 ± 0.94 | 920.45 ± 0.94 | 914.95 ± 0.96 | 1259.9 ± 1.2 | 1241.7 ± 1.2 | 1223.7 ± 1.2 | 1205.7 ± 1.2 | 1187.9 ± 1.2
x1 = 0.1242 | 1078.45 ± 0.63 | 1073.07 ± 0.63 | 1067.67 ± 0.63 | 1062.27 ± 0.63 | 1056.87 ± 0.64 | 1241 ± 1.2 | 1224.8 ± 1.2 | 1208.7 ± 1.2 | 1192.7 ± 1.2 | 1176.8 ± 1.2
x1 = 0.2041 | 1175.48 ± 0.39 | 1170.19 ± 0.38 | 1164.9 ± 0.38 | 1159.61 ± 0.38 | 1154.32 ± 0.4 | 1235 ± 1.2 | 1220.1 ± 1.2 | 1205.3 ± 1.2 | 1190.6 ± 1.2 | 1176 ± 1.2
x1 = 0.341 | 1275.66 ± 0.31 | 1270.52 ± 0.31 | 1265.38 ± 0.31 | 1260.25 ± 0.31 | 1255.12 ± 0.32 | 1234 ± 1.3 | 1220.4 ± 1.2 | 1206.9 ± 1.2 | 1193.5 ± 1.2 | 1180.3 ± 1.2
x1 = 0.5016 | 1343.88 ± 0.33 | 1338.86 ± 0.32 | 1333.85 ± 0.32 | 1328.85 ± 0.32 | 1323.86 ± 0.32 | 1235.1 ± 1.3 | 1222.4 ± 1.3 | 1209.9 ± 1.3 | 1197.5 ± 1.3 | 1185.2 ± 1.3
x1 = 0.6525 | 1384.46 ± 0.39 | 1379.53 ± 0.39 | 1374.6 ± 0.38 | 1369.69 ± 0.38 | 1364.79 ± 0.38 | 1236.2 ± 1.4 | 1224.1 ± 1.4 | 1212.1 ± 1.4 | 1200.3 ± 1.4 | 1188.6 ± 1.4
x1 = 0.7861 | 1410.16 ± 0.47 | 1405.28 ± 0.46 | 1400.42 ± 0.46 | 1395.58 ± 0.45 | 1390.74 ± 0.45 | 1237.1 ± 1.4 | 1225.4 ± 1.4 | 1213.8 ± 1.4 | 1202.4 ± 1.4 | 1191 ± 1.4
x1 = 0.9575 | 1434.22 ± 0.58 | 1429.41 ± 0.58 | 1424.61 ± 0.57 | 1419.83 ± 0.57 | 1415.06 ± 0.56 | 1237.9 ± 1.5 | 1226.6 ± 1.5 | 1215.4 ± 1.5 | 1204.3 ± 1.5 | 1193.4 ± 1.5
x1 = 1 | 1439.23 ± 0.61 | 1434.44 ± 0.61 | 1429.65 ± 0.6 | 1424.88 ± 0.6 | 1420.12 ± 0.59 | 1237.9 ± 1.5 | 1226.7 ± 1.5 | 1215.6 ± 1.5 | 1204.6 ± 1.5 | 1193.7 ± 1.5
